Data published in US20180319810A1, “SUBSTITUTED BRIDGED UREA ANALOGS AS SIRTUIN MODULATORS” (GlaxoSmithKline Intellectual Property (No.2) Limited, priority 2014, published 2018).

Target: T1, SIRT1 (Homo sapiens, UniProt Q96EB6)
T1 sequence (Q96EB6 1-747): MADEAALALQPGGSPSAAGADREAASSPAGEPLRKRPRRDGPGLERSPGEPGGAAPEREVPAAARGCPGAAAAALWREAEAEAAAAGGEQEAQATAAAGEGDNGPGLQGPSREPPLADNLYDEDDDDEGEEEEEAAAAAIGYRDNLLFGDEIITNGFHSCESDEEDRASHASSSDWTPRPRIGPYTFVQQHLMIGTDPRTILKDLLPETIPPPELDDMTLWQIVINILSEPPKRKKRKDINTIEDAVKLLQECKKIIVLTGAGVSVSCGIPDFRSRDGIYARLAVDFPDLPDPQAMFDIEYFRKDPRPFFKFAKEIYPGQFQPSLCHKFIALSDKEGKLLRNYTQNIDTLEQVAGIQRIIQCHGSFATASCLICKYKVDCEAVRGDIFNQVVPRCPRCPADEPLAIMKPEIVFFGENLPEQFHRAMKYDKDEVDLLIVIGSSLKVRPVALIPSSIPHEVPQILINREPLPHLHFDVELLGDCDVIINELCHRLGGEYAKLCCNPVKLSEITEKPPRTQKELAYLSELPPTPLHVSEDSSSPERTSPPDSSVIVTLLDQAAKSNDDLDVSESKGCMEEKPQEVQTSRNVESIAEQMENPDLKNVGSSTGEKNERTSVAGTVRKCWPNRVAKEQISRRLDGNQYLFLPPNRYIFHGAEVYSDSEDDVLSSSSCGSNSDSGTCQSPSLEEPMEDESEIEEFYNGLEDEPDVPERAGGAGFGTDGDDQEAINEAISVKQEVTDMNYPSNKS
Assay: Trp mass spectrometry assay of SIRT1 activation
Type: biochemical
Conditions: Trp peptide Ac-R-H-K-K(Ac)-W-NH2 0.5 μM, 120 μM βNAD+, 10 nM SIRT1, 25 min, 25° C.
Source text: Mass spectrometry based assays were used to identify modulators of SIRT1 activity. […] The peptide was labeled with the fluorophore 5TMR (excitation 540 nm/emission 580 nm) at the C-terminus. The sequence of the peptide substrate was based on p53 with several modifications. In addition, the methionine residue naturally present in the sequence was replaced with the norleucine because the methionine may be susceptible to oxidation during synthesis and purification.
The Trp mass spectrometry assay was conducted as follows. […] The SIRT1 protein was obtained by cloning the SirT1 gene into a T7-promoter containing vector, which was then expressed in BL21(DE3) bacterial cells and purified as described in further detail below. Test compound was added at varying concentrations to this reaction mixture and the resulting reactions were monitored. After the 25 minute incubation with SIRT1, 10 μL of 10% formic acid was added to stop the reaction. The resulting reactions were sealed and frozen for later mass spec analysis. The relative SIRT1 activity was then determined by measuring the amount of O-acetyl-ADP-ribose (OAADPR) formed (or, alternatively, the amount of deacetylated Trp peptide generated) by the NAD-dependent sirtuin deacetylation reaction in the presence of varying concentrations of the test compound versus control reactions lacking the test compound.
The degree to which the test agent activated deacetylation by SIRT1 was expressed as EC1.5 (i.e., the concentration of compound required to increase SIRT1 activity by 50% over the control lacking test compound), and Percent Maximum Activation (i.e., the maximum activity relative to control (100%) obtained for the test compound).
This time point was the same as that used for test compounds and, within the linear range, the endpoint represents a change in velocity.
For the above assay, SIRT1 protein was expressed and purified as follows. The SirT1 gene was cloned into a T7-promoter containing vector and transformed into BL21(DE3). The protein was expressed by induction with 1 mM IPTG as an N-terminal His-tag fusion protein at 18° C. overnight and harvested at 30,000×g. Cells were lysed with lysozyme in lysis buffer (50 mM Tris-HCl, 2 mM Tris[2-carboxyethyl]phosphine (TCEP), 10 μM ZnCl2, 200 mM NaCl) and further treated with sonication for 10 min for complete lysis. The protein was purified over a Ni-NTA column (Amersham) and fractions containing pure protein were pooled, concentrated and run over a sizing column (Sephadex S200 26/60 global). The peak containing soluble protein was collected and run on an Ion-exchange column (MonoQ). Gradient elution (200 mM-500 mM NaCl) yielded pure protein. This protein was concentrated and dialyzed against dialysis buffer (20 mM Tris-HCl, 2 mM TCEP) overnight. The protein was aliquoted and frozen at −80° C. until further use.
“NT” means not tested; “ND” means not determinable.

Compound: O=C(Nc1cc(OC[C@H](O)CO)ncn1)N1c2nc(-c3cccc(C(F)(F)F)c3)ncc2N2CC[C@H]1C2 [Example 16, (8S)—N-(6-((R)-2,3-dihydroxypropoxy)pyrimidin-4-yl)-2-(3-(trifluoromethyl)phenyl)-7,8-dihydro-5,8-methanopyrimido[4,5-b][1,4]diazepine-9(6H)-carboxamide]
- TRP Activity (EC1.5, concentration of compound required to increase SIRT1 activity by 50% over control): B (EC1.5 1-25 μM)
- TRP MAX RESP (percent maximum fold activation relative to control): A (Fold activation ≥150%)

Compound: Cl.O=C(Nc1ccnc(OC[C@H](O)CO)c1)N1c2nc(-c3cccc(C(F)(F)F)c3)ncc2N2CC[C@H]1C2 [Example 34, (8S)—N-(2-((R)-2,3-dihydroxypropoxy)pyridin-4-yl)-2-(3-(trifluoromethyl)phenyl)-7,8-dihydro-5,8-methanopyrimido[4,5-b][1,4]diazepine-9(6H)-carboxamide hydrochloride]
- TRP Activity (EC1.5, concentration of compound required to increase SIRT1 activity by 50% over control): A (EC1.5<1 μM)
- TRP MAX RESP (percent maximum fold activation relative to control): A (Fold activation ≥150%)

Compound: Cc1ncc(-c2ccnc(NC(=O)N3c4nc(C(=O)N[C@H](C)C(F)(F)F)nc(C)c4N4CCC[C@H]3C4)c2)o1 [Example 71, (9S)-4-methyl-N10-(4-(2-methyloxazol-5-yl)pyridin-2-yl)-N2-((R)-1,1,1-trifluoropropan-2-yl)-8,9-dihydro-6H-5,9-methanopyrimido[4,5-b][1,4]diazocine-2,10(7H)-dicarboxamide]
- TRP Activity (EC1.5, concentration of compound required to increase SIRT1 activity by 50% over control): A (EC1.5<1 μM)
- TRP MAX RESP (percent maximum fold activation relative to control): A (Fold activation ≥150%)

Compound: O=C(Nc1cncc(OC[C@@H](O)CO)c1)N1c2nc(-c3cccc(C(F)(F)F)c3)ncc2N2CCC[C@H]1C2 [Example 94, (9S)—N-(5-((S)-2,3-dihydroxypropoxy)pyridin-3-yl)-2-(3-(trifluoromethyl)phenyl)-8,9-dihydro-6H-5,9-methanopyrimido[4,5-b][1,4]diazocine-10(7H)-carboxamide]
- TRP Activity (EC1.5, concentration of compound required to increase SIRT1 activity by 50% over control): A (EC1.5<1 μM)
- TRP MAX RESP (percent maximum fold activation relative to control): A (Fold activation ≥150%)

Compound: C[C@@H](NC(=O)c1ncc2c(n1)N(C(=O)Nc1cnc(OC[C@H](O)CO)cn1)[C@H]1CCCN2C1)C(F)(F)F [Example 69]
- TRP Activity (EC1.5, concentration of compound required to increase SIRT1 activity by 50% over control): B (EC1.5 1-25 μM)
- TRP MAX RESP (percent maximum fold activation relative to control): A (Fold activation ≥150%)

Compound: C[C@@H](NC(=O)c1ncc2c(n1)N(C(=O)Nc1ccccn1)[C@H]1CCN2C1)C(F)(F)F [Example 59, (8S)—N9-(pyridin-2-yl)-N2-((R)-1,1,1-trifluoropropan-2-yl)-7,8-dihydro-5,8-methanopyrimido[4,5-b][1,4]diazepine-2,9(6H)-dicarboxamide]
- TRP Activity (EC1.5, concentration of compound required to increase SIRT1 activity by 50% over control): A (EC1.5<1 μM)
- TRP MAX RESP (percent maximum fold activation relative to control): A (Fold activation ≥150%)

Compound: O=C(Nc1ccc(OC[C@@H](O)CO)nc1)N1c2nc(-c3cccc(C(F)(F)F)c3)ncc2N2CC[C@H]1C2 [Example 38, (8S)—N-(6-((S)-2,3-dihydroxypropoxy)pyridin-3-yl)-2-(3-(trifluoromethyl)phenyl)-7,8-dihydro-5,8-methanopyrimido[4,5-b][1,4]diazepine-9(6H)-carboxamide]
- TRP Activity (EC1.5, concentration of compound required to increase SIRT1 activity by 50% over control): A (EC1.5<1 μM)
- TRP MAX RESP (percent maximum fold activation relative to control): A (Fold activation ≥150%)

Compound: O=C(Nc1ccc(OC[C@H](O)CO)nc1)N1c2nc(-c3cccc(C(F)(F)F)c3)ncc2N2CCC[C@H]1C2 [Example 82, (9S)—N-(6-((R)-2,3-dihydroxypropoxy)pyridin-3-yl)-2-(3-(trifluoromethyl)phenyl)-8,9-dihydro-6H-5,9-methanopyrimido[4,5-b][1,4]diazocine-10(7H)-carboxamide]
- TRP Activity (EC1.5, concentration of compound required to increase SIRT1 activity by 50% over control): A (EC1.5<1 μM)
- TRP MAX RESP (percent maximum fold activation relative to control): A (Fold activation ≥150%)

Compound: Cc1nc(C(=O)N[C@H](C)C(F)(F)F)nc2c1N1CCC[C@@H](C1)N2C(=O)Nc1ccc(OC[C@@H](O)CO)cn1 [Example 118, (9S)—N10-(5-((S)-2,3-dihydroxypropoxy)pyridin-2-yl)-4-methyl-N2-((R)-1,1,1-trifluoropropan-2-yl)-8,9-dihydro-6H-5,9-methanopyrimido[4,5-b][1,4]diazocine-2,10(7H)-dicarboxamide]
- TRP Activity (EC1.5, concentration of compound required to increase SIRT1 activity by 50% over control): A (EC1.5<1 μM)
- TRP MAX RESP (percent maximum fold activation relative to control): A (Fold activation ≥150%)

Compound: Cc1nc(-c2cccc(C(F)(F)F)c2)nc2c1N1CC[C@@H](C1)N2C(=O)Nc1nccc(OC[C@H](O)CO)n1 [Example 56, (8S)—N-(4-((R)-2,3-dihydroxypropoxy)pyrimidin-2-yl)-4-methyl-2-(3-(trifluoromethyl)phenyl)-7,8-dihydro-5,8-methanopyrimido[4,5-b][1,4]diazepine-9(6H)-carboxamide]
- TRP Activity (EC1.5, concentration of compound required to increase SIRT1 activity by 50% over control): B (EC1.5 1-25 μM)
- TRP MAX RESP (percent maximum fold activation relative to control): A (Fold activation ≥150%)

Compound: O=C(Nc1cc(OC[C@@H](O)CO)ccn1)N1c2nc(-c3cccc(C(F)(F)F)c3)ncc2N2CC[C@H]1C2 [Example 36, (8S)—N-(4-((S)-2,3-dihydroxypropoxy)pyridin-2-yl)-2-(3-(trifluoromethyl)phenyl)-7,8-dihydro-5,8-methanopyrimido[4,5-b][1,4]diazepine-9(6H)-carboxamide]
- TRP Activity (EC1.5, concentration of compound required to increase SIRT1 activity by 50% over control): B (EC1.5 1-25 μM)
- TRP MAX RESP (percent maximum fold activation relative to control): A (Fold activation ≥150%)

Compound: O=C(Nc1cc(OC[C@H](O)CO)ccn1)N1c2nc(-c3cccc(C(F)(F)F)c3)ncc2N2CC[C@H]1C2 [Example 33, (8S)—N-(4-((R)-2,3-dihydroxypropoxy)pyridin-2-yl)-2-(3-(trifluoromethyl)phenyl)-7,8-dihydro-5,8-methanopyrimido[4,5-b][1,4]diazepine-9(6H)-carboxamide]
- TRP Activity (EC1.5, concentration of compound required to increase SIRT1 activity by 50% over control): B (EC1.5 1-25 μM)
- TRP MAX RESP (percent maximum fold activation relative to control): A (Fold activation ≥150%)

Compound: O=C(Nc1ccnc(OC[C@@H](O)CO)n1)N1c2nc(-c3cccc(C(F)(F)F)c3)ncc2N2CCC[C@H]1C2 [Example 79, (9S)—N-(2-((S)-2,3-dihydroxypropoxy)pyrimidin-4-yl)-2-(3-(trifluoromethyl)phenyl)-8,9-dihydro-6H-5,9-methanopyrimido[4,5-b][1,4]diazocine-10(7H)-carboxamide]
- TRP Activity (EC1.5, concentration of compound required to increase SIRT1 activity by 50% over control): A (EC1.5<1 μM)
- TRP MAX RESP (percent maximum fold activation relative to control): A (Fold activation ≥150%)

Compound: O=C(Nc1cc(OC[C@@H](O)CO)ncn1)N1c2nc(-c3cccc(C(F)(F)F)c3)ncc2N2CC[C@H]1C2 [Example 29, (8S)—N-(6-((S)-2,3-dihydroxypropoxy)pyrimidin-4-yl)-2-(3-(trifluoromethyl)phenyl)-7,8-dihydro-5,8-methanopyrimido[4,5-b][1,4]diazepine-9(6H)-carboxamide]
- TRP Activity (EC1.5, concentration of compound required to increase SIRT1 activity by 50% over control): B (EC1.5 1-25 μM)
- TRP MAX RESP (percent maximum fold activation relative to control): A (Fold activation ≥150%)
